ChEMBL document CHEMBL2429742, “Design, synthesis, and biological evaluation of novel 3-pyrrolo[b]cyclohexylene-2-dihydroindolinone derivatives as potent receptor tyrosine kinase inhibitors” (Bioorg Med Chem Lett, 2013)

Assays:
[1] = biological target: Vascular endothelial growth factor receptor 2 (Homo sapiens, UniProt P35968)
[2] = biological target: Platelet-derived growth factor receptor beta (Homo sapiens, UniProt P09619)
[3] = biological target: Mast/stem cell growth factor receptor Kit (Homo sapiens, UniProt P10721)
[4] = tested on: BXPC-3; assay: cells; details: Homo sapiens, BXPC-3, 72 h
[5] = tested on: HT-29; assay: cells; details: Homo sapiens, HT-29, 72 h
[6] = tested on: HepG2; assay: Antiproliferative activity against human HepG2 cells after 72 hrs by MTT assay; type: functional, cell-based; details: HepG2, 72 h
[7] = cells; details: Homo sapiens, BGC, 72 h
[8] = tested on: T-24; assay: Antiproliferative activity against human T24 cells after 72 hrs by MTT assay; type: functional, cell-based; details: T-24, 72 h
[9] = Oral bioavailability in cynomolgus monkey; type: ADME, organism-based, Macaca fascicularis; details: in vivo
[10] = biological target: Vascular endothelial growth factor receptor 3 (Homo sapiens, UniProt P35916); assay: Inhibition of VEGFR3 (unknown origin)
[11] = biological target: Vascular endothelial growth factor receptor 1 (Homo sapiens, UniProt P17948); assay: Inhibition of VEGFR1 (unknown origin)
[12] = tested on: BXPC-3; assay: Ratio of sunitinib IC50 to compound IC50 for human BxPC3 cells; type: functional

Platelet-derived growth factor receptor beta, sequence (P09619 whole entry): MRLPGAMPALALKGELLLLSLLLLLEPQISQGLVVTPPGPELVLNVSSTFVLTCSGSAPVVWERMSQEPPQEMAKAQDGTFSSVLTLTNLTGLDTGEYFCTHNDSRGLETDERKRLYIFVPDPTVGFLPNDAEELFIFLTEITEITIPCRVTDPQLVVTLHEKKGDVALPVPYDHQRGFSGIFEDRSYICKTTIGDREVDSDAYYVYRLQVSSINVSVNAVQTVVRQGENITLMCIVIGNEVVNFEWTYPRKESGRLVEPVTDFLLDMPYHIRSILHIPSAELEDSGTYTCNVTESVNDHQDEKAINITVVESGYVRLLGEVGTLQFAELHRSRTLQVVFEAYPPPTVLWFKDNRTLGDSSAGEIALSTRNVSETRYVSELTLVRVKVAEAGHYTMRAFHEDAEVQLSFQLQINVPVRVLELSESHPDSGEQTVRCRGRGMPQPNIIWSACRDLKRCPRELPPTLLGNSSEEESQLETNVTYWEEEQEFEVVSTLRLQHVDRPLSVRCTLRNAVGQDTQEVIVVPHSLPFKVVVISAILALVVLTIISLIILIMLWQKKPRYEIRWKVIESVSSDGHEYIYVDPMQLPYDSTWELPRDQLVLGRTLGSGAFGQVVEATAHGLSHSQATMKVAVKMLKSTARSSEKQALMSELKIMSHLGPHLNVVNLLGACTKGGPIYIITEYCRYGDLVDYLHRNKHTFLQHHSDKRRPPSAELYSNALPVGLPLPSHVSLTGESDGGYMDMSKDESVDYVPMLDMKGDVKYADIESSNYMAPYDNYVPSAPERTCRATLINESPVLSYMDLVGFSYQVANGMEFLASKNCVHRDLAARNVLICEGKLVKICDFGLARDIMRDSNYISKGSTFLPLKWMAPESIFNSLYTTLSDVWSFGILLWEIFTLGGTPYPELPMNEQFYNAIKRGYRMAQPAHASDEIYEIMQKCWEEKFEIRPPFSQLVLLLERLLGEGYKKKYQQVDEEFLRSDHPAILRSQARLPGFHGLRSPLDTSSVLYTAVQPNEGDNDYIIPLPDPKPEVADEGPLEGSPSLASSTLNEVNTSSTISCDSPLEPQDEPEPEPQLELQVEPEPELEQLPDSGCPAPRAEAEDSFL
Mast/stem cell growth factor receptor Kit, sequence (P10721 whole entry): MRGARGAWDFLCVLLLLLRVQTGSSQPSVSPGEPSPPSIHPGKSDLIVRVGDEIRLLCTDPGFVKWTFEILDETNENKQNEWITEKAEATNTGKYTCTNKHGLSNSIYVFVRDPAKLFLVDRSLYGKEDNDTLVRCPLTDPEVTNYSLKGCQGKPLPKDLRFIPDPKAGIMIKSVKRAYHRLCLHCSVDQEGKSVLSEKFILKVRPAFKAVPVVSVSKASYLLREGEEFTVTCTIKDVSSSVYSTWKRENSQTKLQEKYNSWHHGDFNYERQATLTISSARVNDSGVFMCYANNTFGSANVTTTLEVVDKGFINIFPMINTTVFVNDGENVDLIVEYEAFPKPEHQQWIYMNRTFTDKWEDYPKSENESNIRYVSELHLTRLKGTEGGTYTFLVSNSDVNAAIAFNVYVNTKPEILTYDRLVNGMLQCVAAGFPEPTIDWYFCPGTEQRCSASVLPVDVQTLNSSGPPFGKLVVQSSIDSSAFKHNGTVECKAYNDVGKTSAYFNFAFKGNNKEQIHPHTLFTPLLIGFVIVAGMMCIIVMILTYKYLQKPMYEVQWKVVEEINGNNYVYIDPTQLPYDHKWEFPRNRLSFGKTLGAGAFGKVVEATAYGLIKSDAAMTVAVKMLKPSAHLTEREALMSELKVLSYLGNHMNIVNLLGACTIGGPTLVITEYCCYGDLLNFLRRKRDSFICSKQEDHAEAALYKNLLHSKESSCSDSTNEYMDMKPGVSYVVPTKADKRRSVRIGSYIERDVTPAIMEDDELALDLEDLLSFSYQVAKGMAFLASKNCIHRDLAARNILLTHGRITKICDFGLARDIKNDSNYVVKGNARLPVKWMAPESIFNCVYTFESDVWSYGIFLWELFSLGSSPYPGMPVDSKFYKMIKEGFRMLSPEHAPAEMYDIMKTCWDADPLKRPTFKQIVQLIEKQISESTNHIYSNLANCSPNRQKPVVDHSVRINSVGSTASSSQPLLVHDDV
Vascular endothelial growth factor receptor 2, sequence (P35968 whole entry): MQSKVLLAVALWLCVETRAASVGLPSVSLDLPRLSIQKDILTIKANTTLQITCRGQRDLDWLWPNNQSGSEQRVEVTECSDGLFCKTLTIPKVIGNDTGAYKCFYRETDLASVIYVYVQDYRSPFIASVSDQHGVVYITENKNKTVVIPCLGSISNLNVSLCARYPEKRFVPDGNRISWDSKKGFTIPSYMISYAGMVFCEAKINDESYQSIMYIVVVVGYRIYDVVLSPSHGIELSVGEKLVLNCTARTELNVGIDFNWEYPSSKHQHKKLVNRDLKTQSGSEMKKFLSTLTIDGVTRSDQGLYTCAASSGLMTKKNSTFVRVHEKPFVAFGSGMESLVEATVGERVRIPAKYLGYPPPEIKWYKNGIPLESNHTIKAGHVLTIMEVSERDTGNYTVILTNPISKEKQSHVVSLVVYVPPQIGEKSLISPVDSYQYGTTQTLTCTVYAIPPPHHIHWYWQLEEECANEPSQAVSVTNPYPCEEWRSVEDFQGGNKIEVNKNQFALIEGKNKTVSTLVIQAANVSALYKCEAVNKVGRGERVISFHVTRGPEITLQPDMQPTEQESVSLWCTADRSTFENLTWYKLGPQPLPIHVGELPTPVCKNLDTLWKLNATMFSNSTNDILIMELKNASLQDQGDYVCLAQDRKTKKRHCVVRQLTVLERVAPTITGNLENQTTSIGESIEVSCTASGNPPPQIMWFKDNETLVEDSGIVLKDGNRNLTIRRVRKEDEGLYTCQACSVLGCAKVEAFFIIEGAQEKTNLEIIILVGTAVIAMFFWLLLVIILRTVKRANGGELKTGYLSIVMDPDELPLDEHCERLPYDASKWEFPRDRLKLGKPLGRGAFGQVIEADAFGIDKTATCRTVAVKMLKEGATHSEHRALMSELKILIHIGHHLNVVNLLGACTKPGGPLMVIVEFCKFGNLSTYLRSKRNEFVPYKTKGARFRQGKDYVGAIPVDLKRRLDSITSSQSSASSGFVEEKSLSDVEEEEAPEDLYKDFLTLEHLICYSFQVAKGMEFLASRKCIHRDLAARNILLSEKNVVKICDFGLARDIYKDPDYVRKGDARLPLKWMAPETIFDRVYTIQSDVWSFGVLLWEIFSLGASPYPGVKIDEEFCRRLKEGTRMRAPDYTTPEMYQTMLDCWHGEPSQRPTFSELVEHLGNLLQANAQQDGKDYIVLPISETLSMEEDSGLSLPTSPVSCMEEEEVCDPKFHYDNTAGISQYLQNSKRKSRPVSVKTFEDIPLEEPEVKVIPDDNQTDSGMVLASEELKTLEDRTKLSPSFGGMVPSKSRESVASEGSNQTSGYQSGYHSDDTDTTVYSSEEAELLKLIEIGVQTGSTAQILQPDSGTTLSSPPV
Vascular endothelial growth factor receptor 3, sequence (P35916 whole entry): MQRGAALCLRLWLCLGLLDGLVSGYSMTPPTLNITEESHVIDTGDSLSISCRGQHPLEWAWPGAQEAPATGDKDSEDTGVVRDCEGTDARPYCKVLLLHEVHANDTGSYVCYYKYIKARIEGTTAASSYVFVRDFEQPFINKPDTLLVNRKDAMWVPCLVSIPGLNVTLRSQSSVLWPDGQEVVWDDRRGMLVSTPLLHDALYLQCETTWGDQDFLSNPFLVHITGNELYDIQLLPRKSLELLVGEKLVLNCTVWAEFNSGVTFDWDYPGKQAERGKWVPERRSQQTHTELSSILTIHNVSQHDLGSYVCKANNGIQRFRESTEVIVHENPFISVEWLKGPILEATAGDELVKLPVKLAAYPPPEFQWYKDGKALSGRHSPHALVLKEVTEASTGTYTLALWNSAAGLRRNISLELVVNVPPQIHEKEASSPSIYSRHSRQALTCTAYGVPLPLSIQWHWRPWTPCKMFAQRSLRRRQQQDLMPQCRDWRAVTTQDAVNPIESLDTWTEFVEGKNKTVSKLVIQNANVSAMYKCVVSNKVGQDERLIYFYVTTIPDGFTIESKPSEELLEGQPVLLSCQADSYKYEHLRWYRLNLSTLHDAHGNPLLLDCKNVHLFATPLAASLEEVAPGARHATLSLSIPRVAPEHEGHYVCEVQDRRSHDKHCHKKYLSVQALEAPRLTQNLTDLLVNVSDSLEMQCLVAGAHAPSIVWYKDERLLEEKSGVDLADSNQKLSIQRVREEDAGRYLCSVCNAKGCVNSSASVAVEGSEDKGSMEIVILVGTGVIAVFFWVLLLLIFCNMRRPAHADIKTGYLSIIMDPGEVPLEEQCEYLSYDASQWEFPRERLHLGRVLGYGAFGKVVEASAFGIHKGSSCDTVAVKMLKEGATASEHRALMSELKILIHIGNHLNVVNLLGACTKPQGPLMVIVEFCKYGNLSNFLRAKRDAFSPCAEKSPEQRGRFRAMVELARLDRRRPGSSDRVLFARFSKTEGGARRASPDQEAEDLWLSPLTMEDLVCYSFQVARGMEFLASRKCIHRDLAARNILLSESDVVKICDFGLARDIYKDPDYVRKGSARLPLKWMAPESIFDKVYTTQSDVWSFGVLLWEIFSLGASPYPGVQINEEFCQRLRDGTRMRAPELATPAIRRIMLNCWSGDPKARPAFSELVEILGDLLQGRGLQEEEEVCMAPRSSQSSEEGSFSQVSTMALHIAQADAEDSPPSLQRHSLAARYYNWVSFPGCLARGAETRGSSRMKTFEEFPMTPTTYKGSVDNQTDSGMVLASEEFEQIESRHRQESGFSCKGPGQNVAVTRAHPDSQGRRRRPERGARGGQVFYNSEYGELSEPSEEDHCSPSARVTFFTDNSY

Structure (SMILES) | IC50 [1] | IC50 [2] | IC50 [3] | further results
CCN(CC)CC(O)CNC(=O)c1c(C)[nH]c2c1CCC/C2=C1/C(=O)Nc2ccc(F)cc21 (configuration not stated) | 0.0025 µM | 0.0193 µM | 0.0041 µM | –
Cc1[nH]c2c(c1C(=O)NCCN1CCCC1)CCC/C2=C1/C(=O)Nc2ccc(F)cc21 | 0.0097 µM | 0.0416 µM | 0.0074 µM | –
CCN(CC)CCNC(=O)c1c(C)[nH]c2c1CCC/C2=C1/C(=O)Nc2c(F)cccc21 | 0.112 µM | 0.26 µM | 0.181 µM | –
Cc1[nH]c2c(c1C(=O)NCCN1CCCCC1)CCC/C2=C1/C(=O)Nc2ccc(F)cc21 | 0.0043 µM | 0.0194 µM | 0.0058 µM | –
CCN(CC)CCNC(=O)c1c(C)[nH]c2c1CCC/C2=C1/C(=O)Nc2ccc(OC)cc21 | 0.0246 µM | 0.101 µM | 0.0355 µM | –
Cc1[nH]c2c(c1C(=O)NCCO)CCC/C2=C1/C(=O)Nc2ccc(F)cc21 | 0.0011 µM | 0.0127 µM | 0.0014 µM | –
CCN(CC)CCNC(=O)c1c(C)[nH]c2c1CCC/C2=C1/C(=O)Nc2ccc(C)cc21 | 0.0023 µM | 0.0156 µM | 0.0041 µM | –
CCN(CC)CCNC(=O)c1c(C)[nH]c2c1CCC/C2=C1/C(=O)Nc2cccc(F)c21 | 0.015 µM | 0.0621 µM | 0.0431 µM | –
CCN(CC)CCNC(=O)c1c(C)[nH]c(/C=C2\C(=O)Nc3ccc(F)cc32)c1C [SUNITINIB] | – | – | – | IC50 [4]: 3.63 µM; IC50 [5]: 1.47 µM; IC50 [6]: 5.61 µM; IC50 [7]: 4.78 µM; IC50 [8]: 2.44 µM
CCN(CC)CCNC(=O)c1c(C)[nH]c2c1CCC/C2=C1/C(=O)Nc2ccc(Br)cc21 | 0.0039 µM | 0.0076 µM | 0.0023 µM | –
CCN(CC)CCNC(=O)c1c(C)[nH]c2c1CCC/C2=C1/C(=O)Nc2ccc(S(=O)(=O)N(CC)CC)cc21 | 0.33 µM | 0.396 µM | 0.398 µM | –
Cc1[nH]c2c(c1C(=O)NCCc1ccccn1)CCC/C2=C1/C(=O)Nc2ccc(F)cc21 | 0.0114 µM | 0.161 µM | 0.0377 µM | –
CCN(CC)CCNC(=O)c1c(C)[nH]c2c1CCC/C2=C1/C(=O)Nc2ccc(C(=O)OC)cc21 | 0.167 µM | 0.0703 µM | 0.256 µM | –
Cc1[nH]c2c(c1C(=O)N1CCC[C@H]1CN1CCCC1)CCC/C2=C1/C(=O)Nc2ccc(F)cc21 | 0.0118 µM | 0.118 µM | 0.0085 µM | –
Cc1[nH]c2c(c1C(=O)NCCN1CCOCC1)CCC/C2=C1/C(=O)Nc2ccc(F)cc21 | 0.0016 µM | 0.0132 µM | 0.002 µM | –
Cc1[nH]c2c(c1C(=O)N1CCC(N3CCCCC3)CC1)CCC/C2=C1/C(=O)Nc2ccc(F)cc21 | 0.008 µM | 0.0407 µM | 0.0078 µM | –
Cc1[nH]c2c(c1C(=O)NCCN(C)C)CCC/C2=C1/C(=O)Nc2ccc(F)cc21 | 0.003 µM | 0.0227 µM | 0.0066 µM | –
CCN(CC)CCNC(=O)c1c(C)[nH]c2c1CCC/C2=C1/C(=O)Nc2ccc(Cl)cc21 | 0.0026 µM | 0.0121 µM | 0.0027 µM | IC50 [4]: 1.95 µM; IC50 [5]: 6.48 µM; IC50 [6]: 3.14 µM; IC50 [7]: 2.03 µM; IC50 [8]: 1.83 µM
CCN(CC)CCNC(=O)c1c(C)[nH]c2c1CCC/C2=C1/C(=O)Nc2ccc(F)cc21 [TAFETINIB] | – | – | – | IC50 [4]: 0.52 µM; bioavailability [9]: 90%; IC50 [5]: 1.2 µM; IC50 [6]: 7.27 µM; IC50 [7]: 6.11 µM; IC50 [10]: 0.0013 µM; IC50 [8]: 3.31 µM; IC50 [11]: 0.0013 µM
CCN(CC)CCCNC(=O)c1c(C)[nH]c2c1CCC/C2=C1/C(=O)Nc2ccc(F)cc21 | 0.0027 µM | 0.0213 µM | 0.0099 µM | –
Cc1[nH]c2c(c1C(=O)NCCCN1CCCC1)CCC/C2=C1/C(=O)Nc2ccc(F)cc21 | 0.0038 µM | 0.0648 µM | 0.0107 µM | –
CCN(CC)CCNC(=O)c1c(C)[nH]c2c1CCC/C2=C1/C(=O)Nc2ccccc21 | 0.0094 µM | 0.0899 µM | – | IC50 [4]: 0.52 µM; Ratio IC50 [12]: 7; IC50 [5]: 0.54 µM; IC50 [6]: 7.73 µM; IC50 [7]: 6.73 µM; IC50 [8]: 3.56 µM
CCN(CC)CCNC(=O)c1c(C)[nH]c2c1CCC/C2=C1/C(=O)Nc2ccc([N+](=O)[O-])cc21 | 0.0257 µM | 0.0133 µM | 0.0069 µM | –
Cc1[nH]c2c(c1C(=O)NCCCN1CCOCC1)CCC/C2=C1/C(=O)Nc2ccc(F)cc21 | 0.001 µM | 0.018 µM | 0.0057 µM | –
Cc1[nH]c2c(c1C(=O)N1CCOCC1)CCC/C2=C1/C(=O)Nc2ccc(F)cc21 | 0.0011 µM | 0.0401 µM | 0.0021 µM | –
